Where two headings read alike, the source gives them in different places.
Tests used:
[1] = tested on: HIV NL4.3 strain; assay: HIV infectivity assay, reporter cell line HeLa-CD4-LTR-LacZ, β-Gal activity (Tat protein inhibition); format: cell-based, HIV-1 (NL4.3); conditions: Human immunodeficiency virus 1, read-out: Infectivity IC50, HeLa-CD4-LTR-LacZ
Method: (§1) Next, the activity of these leads against HIV infection was evaluated using the reporter cell line HeLa-CD4-LTR-LacZ, which stably expresses the β-galactosidase (β-Gal) gene under the control of the HIV 5′ LTR. The HIV NL4.3 strain was used for these studies and β-Gal activity was measured 72 hrs post infection (FIG. 3A). Cytotoxicity assays using Cell-Titer-Glo were performed in parallel to assess cell viability (FIG. 3A). […] Their anti-HIV activity was further assessed in acute replication of Jurkat T cells with the NL4.3 strain (FIG. 3A). […] These OM10.1 cells contain a single integrated wild-type provirus, while ACH-2 cells contain a single integrated provirus with a TAR mutation C37T, defective Tat-TAR feedback loop (FIG. 3B).

[2] = Cytotoxicity assay, Cell-Titer-Glo, HeLa-CD4-LTR-LacZ; conditions: human, hela-cd4-ltr-lacz cells, Infectivity CC50, HeLa-CD4-LTR-LacZ
Method: as §1

Structure (SMILES)	IC50 ([1]; analogs of TT-44856 (Table 3))	CC50 ([2]; analogs of TT-44856 (Table 3))	IC50 ([1]; analogs of TT-44863 (Table 2))	CC50 ([2]; analogs of TT-44863 (Table 2))	other results
CCC(C(=O)NCCCn1ccnc1)(c1ccccc1)c1ccccc1 [3-49]	1 to 10 µM	> 100 µM	–	–	–
COc1ccc(C#N)cc1NC(=O)Cn1cc(C(F)(F)F)cc(Cl)c1=O [compound 46828]	–	–	50 to 100 µM	50 to 100 µM	–
N#Cc1ccc(C(F)(F)F)cc1NC(=O)Cn1cc(C(F)(F)F)cc(Cl)c1=O [compound 47061]	–	–	> 100 µM	> 100 µM	–
COc1ccccc1CCNC(=O)C(C)(c1ccccc1)c1ccccc1 [3-43]	20 to 100 µM	25 to 50 µM	–	–	–
Cc1nccn1CCCNC(=O)C(c1ccccc1)(c1ccccc1)c1ccccc1 [3-67]	1 to 20 µM	50 to 100 µM	–	–	–
COCCOc1ccc(C(F)(F)F)cc1NC(=O)Cn1cccc(F)c1=O [compound 46762]	–	–	> 100 µM	> 100 µM	–
COc1ccc(F)cc1NC(=O)Cn1cc(C(F)(F)F)cc(Cl)c1=O [compound 46867]	–	–	10 to 30 µM	50 to 100 µM	–
Cc1cc(NCCCN2CCCC2=O)n2nc(C)nc2n1 [compound 46930]	–	–	–	–	IC50 ([1]; analogs of TT-44881 (Table 1)): > 100 µM; CC50 ([2]; analogs of TT-44881 (Table 1)): > 100 µM
CC(CNC(=O)CCn1cncn1)(c1ccccc1)c1ccccc1 [Z221503086]	> 100 µM	–	–	–	–
CCCC(C(=O)NCCCn1ccnc1C)(c1ccccc1)c1ccccc1 [3-65]	1 to 10 µM	50 to 100 µM	–	–	–
CCOc1ccccc1NC(=O)Cn1c(C)cc(COC)c(C#N)c1=O [compound 46602]	–	–	> 100 µM	> 100 µM	–
O=C(NCCCn1ccnc1)c1cc(Cl)nc2ccccc12 [3-39]	> 100 µM	> 100 µM	–	–	–
CCCC(=O)NCc1cn(CCCNC(=O)C(C)(c2ccccc2)c2ccccc2)cn1 [3-62]	> 100 µM	> 100 µM	–	–	–
O=C(Cn1cc(C(F)(F)F)cc(Cl)c1=O)Nc1cccc(C(F)(F)F)c1 [compound 46748]	–	–	> 100 µM	> 100 µM	–
CN1CCN(CCNC(=O)C(C)(c2ccccc2)c2ccccc2)CC1 [3-51]	> 100 µM	> 100 µM	–	–	–
O=C(Cc1ccc2ccccc2c1)NCCCn1ccnc1 [Z31795124]	> 100 µM	–	–	–	–
O=C(NCCCn1ccnc1)c1ccc(-c2ccccc2)cc1 [Z31795699]	> 100 µM	–	–	–	–
COc1ccc(C(F)(F)F)cc1NC(=O)Cn1cccc(Cl)c1=O [compound 46763]	–	–	50 to 100 µM	> 100 µM	–
O=C(NCCCN1CCCC1=O)c1nn(-c2ccccc2)c2ncccc12 [compound 46752]	–	–	–	–	IC50 ([1]; analogs of TT-44881 (Table 1)): > 100 µM; CC50 ([2]; analogs of TT-44881 (Table 1)): > 100 µM

Structure (SMILES)	IC50 ([1]; analogs of TT-44856 (Table 3))	CC50 ([2]; analogs of TT-44856 (Table 3))	IC50 ([1]; analogs of TT-44863 (Table 2))	CC50 ([2]; analogs of TT-44863 (Table 2))	other results
O=C(NCCCn1cnc2ccccc21)C(c1ccccc1)(c1ccccc1)c1ccccc1 [3-68]	10 to 30 µM	20 to 50 µM	–	–	–
COc1ccc(C(F)(F)F)cc1NC(=O)Cn1cccc(F)c1=O [compound 46765]	–	–	> 100 µM	> 100 µM	–
COc1ccc(C(F)(F)F)cc1NC(=O)Cn1cc(C#N)cc(Cl)c1=O [compound 47018]	–	–	> 50 µM	> 50 µM	–
CC(C(=O)NCC1CCCNC1)(c1ccccc1)c1ccccc1 (stereo not shown) [3-59]	1 to 30 µM	> 100 µM	–	–	–
COc1ccc(C(C(=O)NCCCn2ccnc2)c2ccccc2)cc1 (stereo not shown) [3-48]	20 to 50 µM	> 100 µM	–	–	–
O=C(NCCCN1CCCC1=O)c1nn(-c2ccccc2)cc1C1CC1 [compound 47011]	–	–	–	–	IC50 ([1]; analogs of TT-44881 (Table 1)): > 100 µM; CC50 ([2]; analogs of TT-44881 (Table 1)): > 100 µM
O=C(NCCCn1ccnc1)c1cc2cc(Cl)ccc2[nH]1 [3-41]	> 100 µM	> 100 µM	–	–	–
Cc1cc(C(=O)N(C)CCCN2CCCC2=O)nn1-c1ccccc1 [GB-15]	–	–	–	–	IC50 ([1]; analogs of TT-44881 (Table 1)): > 100 µM; CC50 ([2]; analogs of TT-44881 (Table 1)): > 100 µM
O=C(O)COCCOCCOc1ccc(C(F)(F)F)cc1NC(=O)Cn1cc(C(F)(F)F)cc(Cl)c1=O [compound 48]	–	–	> 100 µM	> 100 µM	–
O=C(NCCCN1CCCC1=O)c1cn(-c2ccccc2)c2ncccc12 [compound 46751]	–	–	–	–	IC50 ([1]; analogs of TT-44881 (Table 1)): > 100 µM; CC50 ([2]; analogs of TT-44881 (Table 1)): > 100 µM
COc1ccc(C#N)cc1NC(=O)Cn1cc(C)cc(Cl)c1=O [compound 46946]	–	–	> 50 µM	> 50 µM	–
O=C(NCCCn1ccnc1)C(c1ccccc1)(c1ccccc1)c1ccccc1 [3-58]	1 to 20 µM	> 100 µM	–	–	–
O=C(NCCCN1CCCC1=O)c1nn(-c2ccccc2)c2ccccc12 [compound 46715]	–	–	–	–	IC50 ([1]; analogs of TT-44881 (Table 1)): 50 to 100 µM; CC50 ([2]; analogs of TT-44881 (Table 1)): > 100 µM
COc1ccc(C(F)(F)F)cc1NC(=O)Cn1cc(F)cc(Cl)c1=O [compound 47006]	–	–	> 50 µM	> 50 µM	–
N#Cc1c(NCCCN2CCCC2=O)c2ccccc2[nH]c1=O [compound 46822]	–	–	–	–	IC50 ([1]; analogs of TT-44881 (Table 1)): > 100 µM; CC50 ([2]; analogs of TT-44881 (Table 1)): > 100 µM
CCCC(C(=O)NCCCn1c(C)nc2ccccc21)(c1ccccc1)c1ccccc1 [3-66]	20 to 50 µM	20 to 50 µM	–	–	–
CCOCCOCCOc1ccc(C(F)(F)F)cc1NC(=O)Cn1cc(C(F)(F)F)cc(Cl)c1=O [compound 55]	–	–	1 to 20 µM	> 100 µM	–
CC1(C(=O)NCCCn2ccnc2)c2ccccc2-c2ccccc21 [3-50]	1 to 20 µM	> 100 µM	–	–	–
COc1ccc(C(F)(F)F)cc1NC(=O)CCn1cc(C(F)(F)F)cc(Cl)c1=O [compound 47020]	–	–	> 25 µM	> 25 µM	–
